How the values were obtained:
[1] = target: Human immunodeficiency virus type 1 reverse transcriptase (Human immunodeficiency virus 1, UniProt Q72547); experiment: Inhibitory activity against wild type reverse transcriptase (WT RT) of HIV-1
[2] = test system: Human immunodeficiency virus 1; experiment: Effective concentration against wild-type HIV-1; assay type: functional, organism-based
[3] = test system: Human immunodeficiency virus 1; experiment: Inhibitory activity against HIV-1 mutant strain K103N/Y181C; assay type: functional, organism-based
[4] = species on record: Homo sapiens; experiment: Half-life for oxidative metabolic stability was determined using male human; conditions: in vitro
[5] = Half-life for oxidative metabolic stability was determined using rat liver microsomes; assay type: ADME, Microsome
[6] = target: T1, Cytochrome P450 2D6 (Homo sapiens, UniProt P10635); experiment: Inhibition of CYP450 (Cytochrome P450) 2D6; assay type: ADME
[7] = test system: Human immunodeficiency virus 1; experiment: Effective concentration against mutant K103N/Y181C of HIV-1; assay type: functional, organism-based
[8] = target: T2, Cytochrome P450 2C9 (Homo sapiens, UniProt P11712); experiment: Inhibition of cytochrome P450 2C9; assay type: ADME
[9] = target: Cytochrome P450 2C19 (Homo sapiens, UniProt P33261); experiment: Inhibition of cytochrome P450 2C19; assay type: ADME
[10] = target: T3, Cytochrome P450 3A4 (Homo sapiens, UniProt P08684); experiment: Inhibition of CYP450 (Cytochrome P450) 3A4 with fluorogenic substrate BQ; assay type: ADME
[11] = target: T4, Cytochrome P450 1A2 (Homo sapiens, UniProt P05177); experiment: Inhibition of cytochrome P450 1A2; assay type: ADME
T4 sequence (P05177 whole entry): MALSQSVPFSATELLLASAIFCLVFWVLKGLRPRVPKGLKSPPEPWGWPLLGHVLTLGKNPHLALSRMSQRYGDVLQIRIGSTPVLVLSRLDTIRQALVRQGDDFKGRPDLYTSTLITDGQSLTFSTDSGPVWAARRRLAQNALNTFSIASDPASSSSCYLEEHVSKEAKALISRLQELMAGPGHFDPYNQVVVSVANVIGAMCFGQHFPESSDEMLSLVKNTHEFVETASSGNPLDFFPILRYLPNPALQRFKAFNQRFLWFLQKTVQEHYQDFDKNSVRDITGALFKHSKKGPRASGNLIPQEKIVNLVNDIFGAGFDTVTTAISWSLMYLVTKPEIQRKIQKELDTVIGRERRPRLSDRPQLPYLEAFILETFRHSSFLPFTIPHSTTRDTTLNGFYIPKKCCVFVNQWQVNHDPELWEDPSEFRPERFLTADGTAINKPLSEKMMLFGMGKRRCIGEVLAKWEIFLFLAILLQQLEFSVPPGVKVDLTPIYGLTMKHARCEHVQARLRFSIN

[12] = target: T3, Cytochrome P450 3A4; experiment: Inhibition of CYP450 (Cytochrome P450) 3A4 with fluorogenic substrate BFC; assay type: ADME
[13] = Half-life consistent with the observed metabolic steady state in rats; assay type: ADME, organism-based; conditions: rat, in vivo
[14] = Bioavailability in rats was evaluated; assay type: ADME, organism-based; conditions: rat, in vivo; read-out: Bioavailabiility
[15] = Maximum concentration was evaluated in rats; assay type: ADME, organism-based; conditions: rat, in vivo
[16] = Plasma clearance in rats; assay type: ADME, organism-based; conditions: rat
[17] = target: T1, Cytochrome P450 2D6; experiment: Inhibition of cytochrome P450 2D6; assay type: ADME
[18] = Volume of distribution at steady state was evaluated in rats; assay type: ADME, organism-based; conditions: rat, in vivo; read-out: Vss
[19] = target: T2, Cytochrome P450 2C9; experiment: Inhibition of CYP450 (Cytochrome P450) 2C9; assay type: ADME
[20] = target: T4, Cytochrome P450 1A2; experiment: Inhibition of CYP450 (Cytochrome P450) 1A2; assay type: ADME

T1 sequence (P10635 whole entry): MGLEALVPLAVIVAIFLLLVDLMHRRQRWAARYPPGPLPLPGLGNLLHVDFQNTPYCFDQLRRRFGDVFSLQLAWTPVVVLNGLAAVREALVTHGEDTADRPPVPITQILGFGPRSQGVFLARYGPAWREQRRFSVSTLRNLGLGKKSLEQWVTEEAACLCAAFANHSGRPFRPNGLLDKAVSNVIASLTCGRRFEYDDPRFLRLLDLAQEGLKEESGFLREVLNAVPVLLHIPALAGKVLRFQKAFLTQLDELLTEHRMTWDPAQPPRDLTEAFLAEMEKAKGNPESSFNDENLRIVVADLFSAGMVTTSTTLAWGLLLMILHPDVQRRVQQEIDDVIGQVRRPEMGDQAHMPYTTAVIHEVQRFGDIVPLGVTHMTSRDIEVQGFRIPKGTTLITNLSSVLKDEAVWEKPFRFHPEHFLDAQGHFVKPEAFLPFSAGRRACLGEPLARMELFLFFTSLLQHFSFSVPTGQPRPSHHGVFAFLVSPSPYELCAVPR
Sequence of Cytochrome P450 2C19 (P33261 whole entry): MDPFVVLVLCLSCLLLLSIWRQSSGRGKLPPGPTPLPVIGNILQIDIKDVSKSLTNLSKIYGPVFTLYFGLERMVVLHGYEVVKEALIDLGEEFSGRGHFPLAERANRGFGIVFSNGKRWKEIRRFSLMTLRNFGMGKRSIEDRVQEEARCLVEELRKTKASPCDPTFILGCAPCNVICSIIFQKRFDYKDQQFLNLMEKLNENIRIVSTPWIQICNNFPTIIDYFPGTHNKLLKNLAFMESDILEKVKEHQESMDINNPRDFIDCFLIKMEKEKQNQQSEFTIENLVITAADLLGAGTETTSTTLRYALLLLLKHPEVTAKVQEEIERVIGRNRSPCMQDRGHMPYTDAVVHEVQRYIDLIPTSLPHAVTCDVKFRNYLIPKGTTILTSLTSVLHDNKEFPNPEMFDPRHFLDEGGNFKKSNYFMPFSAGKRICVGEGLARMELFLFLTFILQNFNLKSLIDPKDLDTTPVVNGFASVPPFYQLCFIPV
T2 sequence (P11712 whole entry): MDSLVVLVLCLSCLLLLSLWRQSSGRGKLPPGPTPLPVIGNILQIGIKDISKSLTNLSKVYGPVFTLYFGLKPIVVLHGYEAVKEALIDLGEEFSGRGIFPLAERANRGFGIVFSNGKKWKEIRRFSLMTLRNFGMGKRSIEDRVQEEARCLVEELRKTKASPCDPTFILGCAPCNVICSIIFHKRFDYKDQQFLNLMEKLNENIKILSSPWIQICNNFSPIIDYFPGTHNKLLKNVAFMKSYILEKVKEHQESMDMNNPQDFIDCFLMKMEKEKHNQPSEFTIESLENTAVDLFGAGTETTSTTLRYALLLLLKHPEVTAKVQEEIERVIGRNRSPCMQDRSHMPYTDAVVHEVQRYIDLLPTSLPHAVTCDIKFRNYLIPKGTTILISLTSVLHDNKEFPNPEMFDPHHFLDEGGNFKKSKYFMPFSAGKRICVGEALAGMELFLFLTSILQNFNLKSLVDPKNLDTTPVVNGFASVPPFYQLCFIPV
T3 sequence (P08684 whole entry): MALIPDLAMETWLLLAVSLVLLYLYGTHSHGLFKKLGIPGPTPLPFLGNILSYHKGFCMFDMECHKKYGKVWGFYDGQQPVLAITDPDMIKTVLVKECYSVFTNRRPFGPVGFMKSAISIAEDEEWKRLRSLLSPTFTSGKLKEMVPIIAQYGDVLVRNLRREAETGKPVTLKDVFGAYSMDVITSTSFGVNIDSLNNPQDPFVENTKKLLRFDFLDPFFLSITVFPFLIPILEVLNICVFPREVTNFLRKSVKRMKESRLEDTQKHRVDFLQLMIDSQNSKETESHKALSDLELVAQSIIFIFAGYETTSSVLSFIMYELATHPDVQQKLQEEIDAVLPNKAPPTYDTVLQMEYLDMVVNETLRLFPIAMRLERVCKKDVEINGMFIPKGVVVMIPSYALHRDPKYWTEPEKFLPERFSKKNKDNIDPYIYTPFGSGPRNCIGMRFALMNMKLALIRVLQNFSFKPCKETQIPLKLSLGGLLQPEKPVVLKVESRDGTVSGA

SMILES | IC50 [1] | EC50 [2] | IC50 [3] | EC50 [7] | also measured
CCN1c2ncc(CSc3ccncc3)cc2C(=O)N(C)c2ccc(Cl)nc21 | 3 nM | 0.31 nM | 26 nM |  | 
CCN1c2ncc(CSc3ccncc3)cc2C(=O)Nc2c(C)cc(Cl)nc21 | 2.2 nM | 0.48 nM | 80 nM |  | 
CCN1c2ncc(CSc3ccncc3C)cc2C(=O)Nc2c(C)cc(Cl)nc21 | 11 nM | 3.1 nM | 1640 nM |  | 
CCN1c2ncc(CSc3cc(C)nc(C)c3)cc2C(=O)Nc2c(C)cc(F)nc21 | 6.9 nM | 1 nM | 120 nM | 21 nM | half-life [4]: 5 min; half-life [5]: 5 min; IC50 [6]: 27000 nM; IC50 [8]: 4500 nM; IC50 [9]: 5400 nM; IC50 [10]: 10000 nM; IC50 [11]: 26000 nM; IC50 [12]: 2500 nM
CCN1c2ncc(CSc3cncnc3)cc2C(=O)Nc2c(C)cc(Cl)nc21 | 26 nM | 7.8 nM | 5000 nM |  | 
CCN1c2ncc(CSc3ccnc(C)c3)cc2C(=O)Nc2c(C)cc(Cl)nc21 | 27 nM | 3.4 nM | 310 nM |  | 
CCN1c2ncc(CSc3cc(C)nc(C)c3)cc2C(=O)Nc2c(C)cc(Cl)nc21 | 7 nM | 1.2 nM | 60 nM | 14 nM | half-life [4]: 7 min; half-life [13]: 90 min; bioavailability [14]: 76%; half-life [5]: 4 min; Cmax [15]: 800 nM; IC50 [8]: 2600 nM; clearance [16]: 57 mL/min/kg; IC50 [9]: 4200 nM; IC50 [10]: 8100 nM; IC50 [17]: 27000 nM; IC50 [11]: 23000 nM; IC50 [12]: 2300 nM; Vd [18]: 4.68 L/kg
Cc1cc(SCc2cnc3c(c2)C(=O)Nc2c(C)cc(Cl)nc2N3C2CC2)cc(C)n1 | 12 nM | 2.2 nM | 280 nM | 104 nM | 
CCN1c2ncc(CSc3nc(C)cc(C)n3)cc2C(=O)Nc2c(C)cc(Cl)nc21 | 6 nM | 1.5 nM | 320 nM |  | 
CCN1c2ncc(CSc3cc(C)nc(C)c3)cc2C(=O)Nc2c(C)ccnc21 | 4.2 nM | 0.46 nM | 170 nM | 12 nM | half-life [4]: 9 min; IC50 [19]: 7400 nM; half-life [5]: 9 min; IC50 [6]: > 30000 nM; IC50 [9]: 26000 nM; IC50 [10]: 10000 nM; IC50 [20]: > 30000 nM; IC50 [12]: 1600 nM
CCN1c2ncc(CSc3nc4ccccc4o3)cc2C(=O)Nc2c(C)cc(Cl)nc21 | 8 nM | 2.7 nM | 230 nM |  | 

Source: ChEMBL document CHEMBL1137947, “Novel nevirapine-like inhibitors with improved activity against NNRTI-resistant HIV: 8-heteroarylthiomethyldipyridodiazepinone derivatives” (Bioorg Med Chem Lett, 2004)
